# Experiment: Antagonist activity against CRTh2 receptor in human eosinophils assessed as cell shape change by flow cytometry
row,IC50 [nM],Structure (SMILES)
1,23,CCN(Cc1cc(-c2ccc(F)cn2)ccc1-c1cc(CC(=O)O)ccc1OC)C(=O)C1CC1 [2-(2'-((N-ethylcyclopropanecarboxamido)methyl)-4'-(5-fluoropyridin-2-yl)-6-methoxybiphenyl-3-yl)acetic acid]
2,4,CCN(Cc1cc(-c2cnn(C)c2)ccc1-c1cc(CC(=O)O)ccc1OC)C(=O)C1CC1 [2-(2'-((N-ethylcyclopropanecarboxamido)methyl)-6-methoxy-4'-(1-methyl-1H-pyrazol-4-yl)biphenyl-3-yl)acetic acid]
3,18,CCN(Cc1cc(-c2ncc(OC)cn2)ccc1-c1cc(CC(=O)O)ccc1OC)C(=O)C1CC1 [2-(2'-((N-ethylcyclopropanecarboxamido)methyl)-6-methoxy-4'-(5-methoxypyrimidin-2-yl)biphenyl-3-yl)acetic acid]
4,5,CCOc1ccc(-c2ccc(-c3cc(CC(=O)O)ccc3OC)c(CN(CC)C(=O)C3CC3)c2)cn1 [Sodium [2'-[(cyclopropanecarbonyl-ethyl-amino)-methyl]-4'-(6-ethoxy-pyridin-3-yl)-6-methoxy-biphenyl-3-yl]-acetate]
5,12,CCN(Cc1cc(-c2cnc3ccccc3c2)ccc1-c1cc(CC(=O)O)ccc1OC)C(=O)C1CC1 [2-(2'-((N-ethylcyclopropanecarboxamido)methyl)-6-methoxy-4'-(quinolin-3-yl)biphenyl-3-yl)acetic acid]

# Experiment: Antagonist activity against CRTh2 receptor in human eosinophils assessed as cell shape change after 4 hrs by flow cytometry
row,IC50 [nM],Structure (SMILES)
1,1.7,CCOc1ccc(-c2ccc(-c3cc(CC(=O)O)ccc3OC)c(CN(CC)C(=O)C3CC3)c2)cn1 [Sodium [2'-[(cyclopropanecarbonyl-ethyl-amino)-methyl]-4'-(6-ethoxy-pyridin-3-yl)-6-methoxy-biphenyl-3-yl]-acetate]
